Tests used:
Assay in all cases: viability relative to DMSO control (fraction); higher = less drug effect (more viable cells)
Settings in all cases: 48 h
EPZ-5676 = compound: CC(C)N(C[C@H]1O[C@@H](n2cnc3c(N)ncnc32)[C@H](O)[C@@H]1O)[C@H]1C[C@@H](CCc2nc3cc(C(C)(C)C)ccc3[nH]2)C1 [EPZ-5676]
In short: (§1)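 Viability is given as CellTiter-Glo luminescence relative to the median of 16 inner DMSO wells. Fresh or cryopreserved primary mononuclear tumour cells from blood, bone marrow (both Ficoll-isolated) or processed lymph node were plated at 4 × 10^4 cells per well in 384-well plates against five pre-plated compound concentrations, one well each. Incubation lasted 48 h at 37 °C and 5% CO2 in RPMI-1640 with penicillin/streptomycin, L-glutamine and human serum.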

ONO-4059 = compound: CC#CC(=O)N1CC[C@@H](n2c(=O)n(-c3ccc(Oc4ccccc4)cc3)c3c(N)ncnc32)C1 [ONO-4059]
In short: as §1

Nilotinib = compound: Cc1cn(-c2cc(NC(=O)c3ccc(C)c(Nc4nccc(-c5cccnc5)n4)c3)cc(C(F)(F)F)c2)cn1 [Nilotinib]
In short: as §1

MLN-120B = compound: COc1c(Cl)cc2c([nH]c3cnccc32)c1NC(=O)c1cccnc1C [MLN-120B]
In short: as §1

Row | Test System | viability (EPZ-5676; 0.0032 µM) | viability (EPZ-5676; 0.016 µM) | viability (EPZ-5676; 0.08 µM) | viability (EPZ-5676; 0.4 µM) | viability (EPZ-5676; 2 µM) | viability (ONO-4059; 0.0016 µM) | viability (ONO-4059; 0.008 µM) | viability (ONO-4059; 0.04 µM) | viability (ONO-4059; 0.2 µM) | viability (ONO-4059; 1 µM) | viability (Nilotinib; 0.016 µM) | viability (Nilotinib; 0.08 µM) | viability (Nilotinib; 0.4 µM) | viability (Nilotinib; 2 µM) | viability (Nilotinib; 10 µM) | viability (MLN-120B; 0.024 µM) | viability (MLN-120B; 0.12 µM) | viability (MLN-120B; 0.6 µM) | viability (MLN-120B; 3 µM) | viability (MLN-120B; 15 µM)
1 | primary ALL patient cells (S048) | 0.798 | 0.928 | 0.816 | 0.896 | 0.946 | 0.999 | 0.93 | 0.981 | 0.951 | 0.995 | 1.1 | 1.2 | 1.06 | 1.25 | 1.11 | 0.807 | 0.755 | 0.801 | 0.716 | 0.624
2 | primary ALL patient cells (S088) | 0.74 | 0.922 | 0.812 | 0.874 | 0.917 | 1.03 | 1.14 | 1.07 | 1.04 | 1.02 | 1.16 | 1.16 | 1.14 | 1.22 | 1.26 | 0.199 | 0.231 | 0.233 | 0.248 | 0.24
3 | primary AML patient cells (S002) | 0.98 | 1.08 | 0.936 | 1.01 | 1.04 | 1.07 | 1.08 | 0.919 | 0.971 | 0.997 | 1.1 | 1.24 | 1.18 | 1.23 | 1.31 | 0.876 | 0.994 | 0.805 | 0.811 | 0.619
4 | primary AML patient cells (S006) | 1 | 1.15 | 0.959 | 0.934 | 1.12 |  |  |  |  |  | 1.17 | 1.08 | 1.13 | 1.09 | 1.14 | 0.914 | 0.921 | 0.936 | 0.885 | 0.724
5 | primary AML patient cells (S009) | 0.965 | 0.949 | 1.07 | 0.979 | 0.926 | 1.11 | 1.04 | 1.05 | 1.09 | 1.14 | 1.05 | 1.05 | 1.08 | 1.06 | 1.02 | 0.79 | 0.772 | 0.836 | 0.809 | 0.809
6 | primary AML patient cells (S011) | 1.06 | 0.968 | 0.932 | 0.882 | 1.03 | 0.972 | 0.988 | 0.994 | 0.981 | 0.966 | 1.15 | 1.18 | 1.09 | 1.13 | 1.15 | 0.878 | 0.849 | 0.899 | 0.819 | 0.76
7 | primary AML patient cells (S012) | 0.987 | 0.973 | 1 | 1.01 | 0.98 | 1.09 | 1.07 | 1.04 | 1.12 | 1.09 | 1.01 | 1.03 | 1.03 | 1.06 | 1.09 | 1.01 | 1.06 | 1.1 | 1.07 | 0.965
8 | primary AML patient cells (S017) | 0.919 | 1.01 | 0.959 | 0.984 | 1.05 | 1.07 | 1.05 | 1.36 | 1.03 | 1.09 | 1.14 | 0.991 | 1.12 | 1.06 | 1.12 | 0.92 | 0.921 | 0.908 | 0.937 | 0.912
9 | primary AML patient cells (S019) | 1 | 1.38 | 1.03 | 0.948 | 1.41 | 1.04 | 1.07 | 1.1 | 1.1 | 1.12 | 1.5 | 1.4 | 1.42 | 1.37 | 1.4 | 0.961 | 0.986 | 0.936 | 0.984 | 0.885
10 | primary AML patient cells (S021) | 0.815 | 0.934 | 0.901 | 0.821 | 0.853 | 1.08 | 0.982 | 1.14 | 1.05 | 1.11 | 1.15 | 1.11 | 1.03 | 1.14 | 1.1 | 0.834 | 0.83 | 0.798 | 0.668 | 0.609
11 | primary AML patient cells (S025) | 0.95 | 1.01 | 0.938 | 0.951 | 1.09 | 0.999 | 0.963 | 0.988 | 1.03 | 1.05 | 1.1 | 1.03 | 1.11 | 1.03 | 1.13 |  |  |  |  | 
12 | primary AML patient cells (S037) | 0.876 | 1.06 | 0.888 | 0.938 | 1.1 | 1.02 | 1.58 | 1.01 | 1.21 | 1.05 | 1.11 | 1.13 | 1.07 | 1.08 | 1.14 | 0.965 | 1.24 | 0.95 | 1.13 | 0.812
13 | primary AML patient cells (S055) | 0.94 | 1.07 | 0.93 | 0.973 | 1.05 |  |  |  |  |  |  |  |  |  |  | 0.876 | 0.912 | 0.89 | 0.928 | 0.868
14 | primary AML patient cells (S056) | 0.839 | 0.952 | 0.874 | 1.09 | 0.929 | 0.872 | 0.836 | 0.835 | 1.09 | 0.729 | 1.05 | 1.03 | 1.08 | 1.08 | 1.14 | 0.667 | 0.841 | 0.736 | 0.605 | 0.441
15 | primary AML patient cells (S060) | 0.943 | 1.05 | 0.885 | 0.936 | 1.04 | 1.03 | 1.06 | 1.03 | 1.09 | 1.1 | 1.09 | 1.03 | 1.09 | 1 | 1.1 | 1.05 | 1.05 | 1.07 | 1.03 | 0.969

From the supplement of paper PMC10733146
